Measurements taken from PubChem BioAssay AID256 (DTP/NCI, 2004).
Values joined by “and” are separate entries in the source; they are usually repeats but may differ in a detail not shown here. Identical values can stand only once. Toxic doses and inconclusive results are not listed. How the source made its calls: active means survival T/C of 150% or more; inactive means T/C below 125% in these data.

Test system: CD2F1 mice, L1210 leukemia ip, survival T/C
Test: NCI In Vivo Anticancer Drug Screen. Data for tumor model L1210 Leukemia (intraperitoneal) in CD2F1 (CDF1) mice
Settings: higher = longer survival
Summary of the method: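 Implant tumor; dose compound or vehicle; measure endpoint in both groups; report treated divided by control.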

[1] = endpoint: mean survival time, dose: 100.0 mg/kg/injection, schedule: Q01DX001 (ip), vehicle: saline
[2] = endpoint: mean survival time, dose: 200.0 mg/kg/injection, schedule: Q01DX001 (ip), vehicle: saline
[3] = endpoint: mean survival time, dose: 400.0 mg/kg/injection, schedule: Q01DX001 (ip), vehicle: saline
[4] = endpoint: mean survival time, dose: 12.5 mg/kg/injection, schedule: Q01DX009 (ip), vehicle: saline with Tween-80
[5] = endpoint: mean survival time, dose: 50.0 mg/kg/injection, schedule: Q01DX009 (ip), vehicle: saline with Tween-80
[6] = endpoint: mean survival time, dose: 100.0 mg/kg/injection, schedule: Q01DX009 (ip), vehicle: saline with Tween-80
[7] = endpoint: mean survival time, dose: 200.0 mg/kg/injection, schedule: Q01DX009 (ip), vehicle: saline with Tween-80
[8] = endpoint: mean survival time, dose: 100.0 mg/kg/injection, schedule: Q04DX003 (ip), vehicle: saline with Tween-80
[9] = endpoint: mean survival time, dose: 200.0 mg/kg/injection, schedule: Q04DX003 (ip), vehicle: saline with Tween-80
[10] = endpoint: mean survival time, dose: 400.0 mg/kg/injection, schedule: Q04DX003 (ip), vehicle: saline with Tween-80
[11] = endpoint: mean survival time, dose: 100.0 mg/kg/injection, schedule: Q04DX002 (ip), vehicle: saline with Tween-80

Measured: T/C

ClC1CCC(Cl)C2CCC3C(Cl)CCC1[S+]23 (stereo not given)
inactive: endpoint: mean survival time, dose: 3.12 mg/kg/injection, schedule: Q01DX009 (ip), vehicle: Klucel (hydroxypropylcellulose) (HPC) 104 % of control | endpoint: mean survival time, dose: 6.25 mg/kg/injection, schedule: Q01DX009 (ip), vehicle: Klucel (hydroxypropylcellulose) (HPC) 97 % of control | endpoint: mean survival time, dose: 12.5 mg/kg/injection, schedule: Q01DX009 (ip), vehicle: Klucel (hydroxypropylcellulose) (HPC) 95 % of control

COC(=O)CC(CC(=O)OC)N1CC=CC1
inactive: [1] 100 % of control | [2] 98 % of control | [3] 108 % of control

FCCc1ccc(F)cc1
inactive: endpoint: mean survival time, dose: 100.0 mg/kg/injection, schedule: Q01DX001 (ip), vehicle: saline with Tween-80 101 % of control | endpoint: mean survival time, dose: 100.0 mg/kg/injection, schedule: Q04DX003 (ip), vehicle: saline sonified 93 % of control | endpoint: mean survival time, dose: 200.0 mg/kg/injection, schedule: Q01DX001 (ip), vehicle: saline with Tween-80 100 % of control | endpoint: mean survival time, dose: 200.0 mg/kg/injection, schedule: Q04DX003 (ip), vehicle: saline sonified 100 % of control | endpoint: mean survival time, dose: 400.0 mg/kg/injection, schedule: Q01DX001 (ip), vehicle: saline with Tween-80 101 % of control | endpoint: mean survival time, dose: 400.0 mg/kg/injection, schedule: Q04DX003 (ip), vehicle: saline sonified 98 % of control

C(=C(/C=C/c1ccccc1)/C=C/c1ccccc1)C(=C/c1ccccc1)/c1ccccc1
inactive: endpoint: mean survival time, dose: 12.5 mg/kg/injection, schedule: Q01DX001 (ip), vehicle: saline with Tween-80 100 % of control | [4] 91 % of control | endpoint: mean survival time, dose: 25.0 mg/kg/injection, schedule: Q01DX001 (ip), vehicle: saline with Tween-80 90 % of control | endpoint: mean survival time, dose: 50.0 mg/kg/injection, schedule: Q01DX001 (ip), vehicle: saline with Tween-80 92 % of control | [5] 86 % of control

CCOC(=O)Nc1n[nH]c(=S)[nH]c1=O
inactive: endpoint: mean survival time, dose: 100.0 mg/kg/injection, schedule: Q01DX001 (ip), vehicle: carboxymethylcellulose (CMC) 96 % of control | endpoint: mean survival time, dose: 200.0 mg/kg/injection, schedule: Q01DX001 (ip), vehicle: carboxymethylcellulose (CMC) 100 % of control | endpoint: mean survival time, dose: 400.0 mg/kg/injection, schedule: Q01DX001 (ip), vehicle: carboxymethylcellulose (CMC) 96 % of control

COc1cc(OC)c(NC(=O)Oc2ccc3ccccc3c2)cc1Cl
inactive: [5] 94 % of control | [6] 94 % of control | [7] 97 % of control

O=C(NCCCC1C2CCC(C2)C1CNC(=O)Nc1cccc(Cl)c1)Nc1cccc(Cl)c1 (stereo not given)
inactive: [6] 93 % of control | [7] 93 % of control | endpoint: mean survival time, dose: 400.0 mg/kg/injection, schedule: Q01DX009 (ip), vehicle: saline with Tween-80 89 % of control

Cc1c(Cl)cccc1NC(=O)COc1ccc(Cl)cc1Cl
inactive: [8] 94 % of control | [9] 98 % of control | [10] 96 % of control

O=C(O)CN(CC(=O)O)C1CCCCC1N(CC(=O)O)CC(=O)O.[Cl][Pt+2][Cl] (stereo not given)
inactive: endpoint: median survival time, dose: 10.0 mg/kg/injection, schedule: Q04DX003 (ip), vehicle: saline 96 % of control | endpoint: median survival time, dose: 20.0 mg/kg/injection, schedule: Q04DX003 (ip), vehicle: saline 106 % of control | endpoint: median survival time, dose: 40.0 mg/kg/injection, schedule: Q04DX003 (ip), vehicle: saline 103 % of control and 104 % of control | endpoint: median survival time, dose: 80.0 mg/kg/injection, schedule: Q04DX003 (ip), vehicle: saline 106 % of control and 109 % of control

CC(=O)OC1CCC2(C)C(CCC3C2CCC2(C)C3CC3OC4(CCC(C)CO4)C(C)C32)C1 (stereo not given)
inactive: [8] 95 % of control and 92 % of control | [9] 89 % of control and 90 % of control and 95 % of control | [10] 87 % of control and 90 % of control

COc1ccc(Cl)cc1N
inactive: [8] 94 % of control | [9] 92 % of control | [10] 96 % of control

CCCCCCCCCCC(=O)N1CCOCC1
inactive: [5] 87 % of control | [6] 96 % of control

CN(C)c1ccc(/C=C2N=C(/C=C\c3ccccc3)OC\2=O)cc1
inactive: [11] 98 % of control | endpoint: mean survival time, dose: 200.0 mg/kg/injection, schedule: Q04DX002 (ip), vehicle: saline with Tween-80 94 % of control | endpoint: mean survival time, dose: 400.0 mg/kg/injection, schedule: Q04DX002 (ip), vehicle: saline with Tween-80 105 % of control

CSc1ccc(NC(C)=O)cc1
inactive: endpoint: mean survival time, dose: 100.0 mg/kg/injection, schedule: Q01DX001 (ip), vehicle: Klucel (hydroxypropylcellulose) (HPC) 94 % of control | endpoint: mean survival time, dose: 200.0 mg/kg/injection, schedule: Q01DX001 (ip), vehicle: Klucel (hydroxypropylcellulose) (HPC) 96 % of control | endpoint: mean survival time, dose: 400.0 mg/kg/injection, schedule: Q01DX001 (ip), vehicle: Klucel (hydroxypropylcellulose) (HPC) 96 % of control

CCC(=O)C(=O)c1ccccc1
inactive: [1] 101 % of control | [2] 98 % of control | [3] 101 % of control

N#CC(NCc1ccccc1)c1ccc2c(c1)OCO2 (stereo not given)
inactive: [5] 98 % of control | [6] 90 % of control | [8] 99 % of control | [9] 108 % of control

O=C(OCC1OC(n2cnc([N+](=O)[O-])n2)C(OC(=O)c2ccccc2)C1OC(=O)c1ccccc1)c1ccccc1 (stereo not given)
inactive: endpoint: median survival time, dose: 18.8 mg/kg/injection, schedule: Q01DX005 (ip), vehicle: Klucel (hydroxypropylcellulose) (HPC) 100 % of control | endpoint: median survival time, dose: 37.5 mg/kg/injection, schedule: Q01DX005 (ip), vehicle: Klucel (hydroxypropylcellulose) (HPC) 102 % of control | endpoint: median survival time, dose: 75.0 mg/kg/injection, schedule: Q01DX005 (ip), vehicle: Klucel (hydroxypropylcellulose) (HPC) 97 % of control | endpoint: median survival time, dose: 140.0 mg/kg/injection, schedule: Q01DX005 (ip), vehicle: Klucel (hydroxypropylcellulose) (HPC) 96 % of control

N#[N+]c1c(C(=O)O)[nH]c(=O)[nH]c1=O
inactive: [4] 100 % of control | endpoint: mean survival time, dose: 12.5 mg/kg/injection, schedule: Q04DX003 (ip), vehicle: saline with Tween-80 101 % of control | endpoint: mean survival time, dose: 25.0 mg/kg/injection, schedule: Q01DX009 (ip), vehicle: saline with Tween-80 91 % of control | endpoint: mean survival time, dose: 25.0 mg/kg/injection, schedule: Q04DX003 (ip), vehicle: saline with Tween-80 102 % of control | [5] 96 % of control

CC1=C(C)CN(c2ccccc2)SC1
inactive: [8] 98 % of control | [9] 98 % of control | [10] 98 % of control

N#CCCn1c2ccccc2c2ccccc21
inactive: [8] 98 % of control | [9] 94 % of control | [10] 94 % of control

CCCc1cc(C(C)=O)c[n+](C2OC(COC(=O)c3ccccc3)C(OC(=O)c3ccccc3)C2O)c1 (stereo not given)
inactive: endpoint: mean survival time, dose: 3.13 mg/kg/injection, schedule: Q01DX005 (ip), vehicle: distilled water + Tween-80 109 % of control | endpoint: mean survival time, dose: 6.25 mg/kg/injection, schedule: Q01DX005 (ip), vehicle: distilled water + Tween-80 92 % of control | endpoint: mean survival time, dose: 12.5 mg/kg/injection, schedule: Q01DX005 (ip), vehicle: distilled water + Tween-80 93 % of control | endpoint: mean survival time, dose: 25.0 mg/kg/injection, schedule: Q01DX005 (ip), vehicle: distilled water + Tween-80 89 % of control | endpoint: mean survival time, dose: 50.0 mg/kg/injection, schedule: Q01DX005 (ip), vehicle: distilled water + Tween-80 90 % of control and 97 % of control

Nc1ccccc1Sc1ccc2c3c(cccc13)C(=O)N(c1ccccc1)C2=O
inactive: endpoint: mean survival time, dose: 25.0 mg/kg/injection, schedule: Q04DX002 (ip), vehicle: saline with Tween-80 95 % of control | endpoint: mean survival time, dose: 50.0 mg/kg/injection, schedule: Q04DX002 (ip), vehicle: saline with Tween-80 98 % of control | [11] 87 % of control

CC(C)C(C)OC(=O)Nc1cccc(O)c1 (stereo not given)
inactive: [8] 99 % of control | [9] 97 % of control | [10] 97 % of control

O=C(O)C(O)Cn1ccccc1=O (stereo not given)
inactive: endpoint: mean survival time, dose: 50.0 mg/kg/injection, schedule: Q01DX001 (ip), vehicle: saline 104 % of control | [1] 96 % of control | [2] 101 % of control

CN(C)CCCNc1cccc2c1C(=O)c1cccc(NCCCN(C)C)c1C2=O
inactive: endpoint: mean survival time, dose: 8.0 mg/kg/injection, schedule: Q01DX009 (ip), vehicle: acid diluted with saline 102 % of control | endpoint: mean survival time, dose: 16.0 mg/kg/injection, schedule: Q01DX009 (ip), vehicle: acid diluted with saline 102 % of control | endpoint: mean survival time, dose: 32.0 mg/kg/injection, schedule: Q01DX009 (ip), vehicle: acid diluted with saline 106 % of control | endpoint: mean survival time, dose: 64.0 mg/kg/injection, schedule: Q01DX009 (ip), vehicle: acid diluted with saline 100 % of control

CCc1cc(CSc2ccc(Cl)cc2)ccc1N
inactive: [8] 102 % of control | [9] 100 % of control | [10] 98 % of control

CC(=O)OCC1OC(n2ncc3c(Sc4c([N+](=O)[O-])ncn4C)ncnc32)C(OC(C)=O)C1OC(C)=O (stereo not given)
inactive: endpoint: mean survival time, dose: 25.0 mg/kg/injection, schedule: Q01DX009 (ip), vehicle: other 100 % of control | endpoint: mean survival time, dose: 50.0 mg/kg/injection, schedule: Q01DX009 (ip), vehicle: other 102 % of control | endpoint: mean survival time, dose: 100.0 mg/kg/injection, schedule: Q01DX009 (ip), vehicle: other 100 % of control

COc1ccc2c(c1O)C1=CC(=O)CCC13CCN(C)C3C2 (stereo not given)
inactive: endpoint: mean survival time, dose: 100.0 mg/kg/injection, schedule: Q01DX009 (ip), vehicle: saline 103 % of control | endpoint: mean survival time, dose: 200.0 mg/kg/injection, schedule: Q01DX009 (ip), vehicle: saline 96 % of control
